Measured values reported in patent US7244608B2, “Microorganism producing 5′-inosinic acid and process for producing 5′-inosinic acid using the same” (priority 2000, dated 2007).

How the values were obtained:
the present strain = experiment: Effect of amino acids on synthesis of 5'-inosinic acid by direct fermentation; assay type: cell-based, Corynebacterium ammoniagenes; settings: added to the medium
From the text: Accordingly, the present inventors tested the effect of various amino acids on the synthesis of 5′-inosinic acid by direct fermentation. As the result, the inventors determined that the fermentation concentration of 5′-inosinic acid increased upon addition of L-glutamine to the medium. The inventors further determined that the appropriate supply of L-glutamine to the present strain is a rate-limiting step in the synthesis of 5′-inosinic acid.

[1] = test system: Corynebacterium ammoniagenes strain CJ112 (ATCC-6872); experiment: Growth on minimal agar medium containing the agent; biochemical properties of parent strain; assay type: cell-based
Description: (§1) The biochemical properties of representative variants of the novel strain CJIP009 according to the present invention is shown in the following Table 1 (This invention is not limited to the following properties).
(§2) Corynebacterium ammoniagenes strain CJ112 (ATCC-6872), the parent strain, was suspended to 10^7˜10^8 cells/mL in the phosphate buffer (pH 7.0) or citrate buffer (pH 5.5). N-methyl-N′-nitro-N-nitrosoguanidine (NTG) was added to a final concentration of 10˜50 μg/mL at room temperature or 32° C. After 20˜40 minutes, cells were washed twice with 0.85% saline. Colonies were obtained by suitably suspending and spreading cells on a minimal medium (Medium 2) containing 1.7% agar. Then, each colony was tooth picked on to the minimal medium (Medium 2) containing 1.7% agar and on the minimal medium (Medium 2) containing 1.7% agar and […] of lysozyme. First, microorganisms that grew on the minimal medium containing 1.7% agar, but not on the minimal medium containing 40 μg/mL of lysozyme were selected. […] The colony of highly lysozyme sensitive microorganisms was cultivated on a nutrition medium (Medium 1), then cultivated for 24 hours on a seed medium (Medium 3), and cultivated for 3˜4 days on a culture medium (Medium 4) thereby to select LY002 that can produce 5′-inosinic acid accumulated in the culture medium at the largest amounts.

[2] = test system: Corynebacterium ammoniagenes CJIP009 (KCCM-10226); experiment: Growth on minimal agar medium containing the agent; biochemical properties of mutant CJIP009; assay type: cell-based; settings: strain CJIP009 (KCCM-10226)
Description: The protocol by which the mutant microorganims of the present invention was isolated began with strain CJ 12 as the parental strain and consisted of several iterations of mutagenesis and screening. In each iteration, microorganisms were treated with X-ray irradiation, ultraviolet ray irradiation, and/or a chemical mutagen, such as N-methyl-N′-nitro-N-nitrosoguanidine (NTG), diethyl sulfate, ethyl amine, etc., and then screened for 5′-inosinic acid production. Treated bacteria were suitably suspended and spread on a minimal medium (Medium 2) containing 1.7% agar and each concentration of variants. Then, each colony was cultivated on a nutrition medium (Medium 1) followed by a seed medium (Medium 3) for 24 hours and a fermentation medium (Medium 4) for […]. Colonies that produced the highest levels of 5′-inosinic acid were selected for subsequent rounds of mutagenesis.
as §1
The mutant of Example 5, strain CITP13, was used as the parent strain for Example 6. CITP13 was suspended to 10^7˜10^8 cells/mL in the phosphate buffer (pH 7.0) or citrate buffer (pH 5.5). NTG mutagenesis was performed as in Example 1. Colonies were obtained by suitably suspending and spreading cells on a 3 minimal media (Medium 2), which contained 1.7% agar and 50 μg/ml, 75 μg/ml, or 100 μg/mL of azaserine, respectively. Then, each colony was cultivated on the nutrition medium (Medium 1), then cultivated for 24 hours on a seed medium (Medium 3), and cultivated for 3–4 days on a culture medium (Medium 4) thereby to select CJIP009 (KCCM-10226) that can produce 5′-inosinic acid accumulated in the culture medium at the largest amounts.

CITP13 = experiment: Growth on minimal agar medium containing the agent, strain CITP13; assay type: cell-based, Corynebacterium ammoniagenes
Description: The mutant of Example 4, strain CIAC12, was used as the parent strain for Example 5. CIAC12 was suspended to 10^7˜10^8 cells/mL in the phosphate buffer (pH 7.0) or citrate buffer (pH 5.5). NTG mutagenesis was performed as in Example 1. Colonies were obtained by suitably suspending and spreading cells on a 3 minimal media (Medium 2), which contained 1.7% agar and 20 μg/ml, 50 μg/ml, or 100 μg/mL of L-thiazolidine-4-carboxylic acid, respectively. Then, each colony was cultivated on the nutrition medium (Medium 1), then cultivated for 24 hours on a seed medium (Medium 3), and, cultivated for 3˜4 days on a culture medium (Medium 4) thereby to select CITP13 that can produce 5′-inosinic acid accumulated in the culture medium at the largest amounts.
The mutant of Example 5, strain CITP13, was used as the parent strain for Example 6. CITP13 was suspended to 10^7˜10^8 cells/mL in the phosphate buffer (pH 7.0) or citrate buffer (pH 5.5). NTG mutagenesis was performed as in Example 1. Colonies were obtained by suitably suspending and spreading cells on a 3 minimal media (Medium 2), which contained 1.7% agar and 50 μg/ml, 75 μg/ml, or 100 μg/mL of azaserine, respectively. […]

CISM10 = experiment: Growth on minimal agar medium containing the agent, strain CISM10; assay type: cell-based, Corynebacterium ammoniagenes
Description: The mutant of Example 1, strain LY002, was used as the parent strain for Example 2. LY002 was suspended to 10^7˜10^8 cells/mL in the phosphate buffer (pH 7.0) or citrate buffer (pH 5.5). NTG mutagenesis was performed as in Example 1. Colonies were obtained by suitably suspending and spreading cells on a 3 minimal media (Medium 2), which contained 1.7% agar and 1,000 μg/ml, 1,500 μg/mL or 2,000μg/mL of streptomycin, respectively. Then, each colony was cultivated on the nutrition medium (Medium 1), then cultivated for 24 hours on a seed medium (Medium 3), and cultivated for 3˜4 days on a culture medium (Medium 4) thereby to select CISM10 that can produce 5′-inosinic acid accumulated in the culture medium at the largest amounts.
The mutant of Example 2, strain CISM10, was used as the parent strain for Example 3. CISM10 was suspended to 10^7˜10^8 cells/mL in the phosphate buffer (pH 7.0) or citrate buffer (pH 5.5). NTG mutagenesis was performed as in Example 1. Colonies were obtained by suitably suspending and spreading cells on a 3 minimal media (Medium 2), which contained 1.7% agar and 1,500 μg/ml, 2,500 μg/ml, or 3,500 μg/mL of 3,4-dehydroproline, respectively. Then, each colony was cultivated on the nutrition medium (Medium 1), then cultivated for 24 hours on a seed medium (Medium 3), and cultivated for 3–4 days on a culture medium (Medium 4) thereby to select […] that can produce 5′-inosinic acid accumulated in the culture medium at the largest amounts.

CS101 = experiment: Growth on minimal agar medium containing the agent, strain CS101; assay type: cell-based, Corynebacterium ammoniagenes
LY002 = experiment: Growth on minimal agar medium containing the agent, strain LY002; assay type: cell-based, Corynebacterium ammoniagenes
Description: as §2
The mutant of Example 1, strain LY002, was used as the parent strain for Example 2. LY002 was suspended to 10^7˜10^8 cells/mL in the phosphate buffer (pH 7.0) or citrate buffer (pH 5.5). NTG mutagenesis was performed as in Example 1. […]

CIAC12 = experiment: Growth on minimal agar medium containing the agent, strain CIAC12; assay type: cell-based, Corynebacterium ammoniagenes
Description: The mutant of Example 3, strain CS101, was used as the parent strain for Example 4. CS101 was suspended to 10^7˜10^8 cells/mL in the phosphate buffer (pH 7.0) or citrate buffer (pH 5.5). NTG muta genesis was performed as in Example 1. Colonies were obtained by suitably suspending and spreading cells on a 3 minimal media (Medium 2), which contained 1.7% agar and 10 μg/ml, 20 μg/ml, or 30 μg/mL of L-azetidine-2-carboxylic acid, respectively. Then, each colony was cultivated on the nutrition medium (Medium 1), then cultivated for 24 hours on a seed medium (Medium 3), and cultivated for 3˜4 days on a culture medium (Medium 4), thereby to select CIAC12 that can produce 5′-inosinic acid accumulated in the culture medium at the largest amounts.

NC(=O)CC[C@H](N)C(=O)O [L-glutamine]
Fermentation concentration of 5'-inosinic acid upon addition to the medium (the present strain): increased

[N-]=[N+]=CC(=O)OC[C@H](N)C(=O)O [Azaserine]
Resistance to agent (concentration) ([1]; strain ATCC6872): 25 µg/mL | Concentration of azaserine at which the microorganism shows resistance [2]: 100 µg/mL | Resistance to agent (concentration) [2]: 100 µg/mL | Concentration of azaserine at which the microorganism shows resistance (CITP13): 25 µg/mL

O=C(O)[C@@H]1CSCN1 [L-thiazolidine-4-carboxylic acid]
Resistance to agent (concentration) ([1]; strain ATCC6872): 10 µg/mL | Resistance to agent (concentration) [2]: 100 µg/mL | Concentration of L-thiazolidine-4-carboxylic acid at which the microorganism shows resistance (CISM10): 10 µg/mL | Concentration of L-thiazolidine-4-carboxylic acid at which the microorganism shows resistance (CS101): 100 µg/mL

lysozyme
Sensitivity to lysozyme (minimal growth inhibition concentration) ([1]; strain ATCC6872): 80 µg/mL | Concentration of lysozyme at which the microorganism shows sensitivity ([1]; strain CJ112): 80 µg/mL | Sensitivity to lysozyme (minimal growth inhibition concentration) [2]: 8 µg/mL | Concentration of lysozyme at which the microorganism shows sensitivity (LY002): 8 µg/mL

O=C(O)C1C=CCN1 (stereo not shown) [3,4-dehydroproline]
Resistance to agent (concentration) ([1]; strain ATCC6872): 1,000 μg/ml | Resistance to agent (concentration) [2]: 3,500 μg/ml | Concentration of 3,4-dehydroproline at which the microorganism shows resistance (CISM10): 1,000 μg/ml | Concentration of 3,4-dehydroproline at which the microorganism shows resistance (CS101): 3,500 μg/ml

[H]/N=C(/N)N[C@H]1[C@H](O)[C@@H](O)[C@H](O[C@@H]2O[C@@H](C)[C@](O)(C=O)[C@H]2O[C@@H]2O[C@@H](CO)[C@H](O)[C@@H](O)[C@@H]2NC)[C@@H](N/C(N)=N\[H])[C@@H]1O [Streptomycin, streptomycin]
Resistance to agent (concentration) ([1]; strain ATCC6872): 500 µg/mL | Resistance to agent (concentration) [2]: 2,000 μg/ml | Concentration of streptomycin at which the microorganism shows resistance (LY002): 500 µg/mL | Concentration of streptomycin at which the microorganism shows resistance (CISM10): 2,000 μg/ml

O=C(O)[C@@H]1CCN1 [L-azetidine-2-carboxylic acid]
Resistance to agent (concentration) ([1]; strain ATCC6872): 5000 µg/mL | Resistance to agent (concentration) [2]: 30000 µg/mL | Concentration of L-azetidine-2-carboxylic acid at which the microorganism shows resistance (CISM10): 5 mg/mL | Concentration of L-azetidine-2-carboxylic acid at which the microorganism shows resistance (CIAC12): 30 mg/mL
